According to ChEMBL document CHEMBL1201862, “PubChem BioAssay data set” (2004):
Activity calls are given as the source filed them.

Tests used:
[1] = biological target: 72 kDa type IV collagenase (Homo sapiens, UniProt P08253); test: Dose Response validation of uHTS RPN11 inhibitor hits using a MMP-2 Fluorescence assay.; format: functional
SUMO-activating enzyme [2] = biological target: T1, SUMO-activating enzyme (Homo sapiens, UniProt Q9UBT2); test: inhibitors of in vitro SUMOylation cascade, primary screen, biochemical, HTRF, uHTS (AID 2006); format: protein-complex assay
SUMO-activating enzyme [3] = biological target: T1, SUMO-activating enzyme; test: SUMOylation inhibitor hit validation, confirmation, SUMOylation inhibitor project, biochemical, AlphaScreen (AID 2018); format: functional
[4] = cytotoxicity in HEK-293T cells, dose response, cytotoxicity control for BCR NF-kB inhibitor project, luminescence, B-cell screen hits (AID 489021); format: functional, cell-based;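 note: HEK-293T cells carrying an NF-kB luciferase reporter; cells exposed to compound for about 14 hours before viability readout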
[5] = biological target: 26S proteasome non-ATPase regulatory subunit 14 (Homo sapiens, UniProt O00487); test: inhibition of proteasome subunit RPN11 – biochemical, fluorescence polarization, uHTS hits, confirmation (AID 602368); format: functional
Prothrombin = Prothrombin (Bos taurus, UniProt P00735); test: thrombin inhibition, dose response, biochemical, fluorescence polarization, uHTS hits (AID 602369); format: functional
[6] = biological target: Protein disulfide-isomerase (Homo sapiens, UniProt P07237); test: PDI inhibitors, insulin aggregation turbidity, dose response, biochemical, absorbance, cherry-picked samples (AID 602350); format: functional
[7] = biological target: T2, DNA dC->dU-editing enzyme APOBEC-3G (Homo sapiens, UniProt Q9HC16); test: SAR analysis of small molecule inhibitors of APOBEC3G DNA Deaminase via a fluorescence-based single-stranded DNA deaminase assay - Set 2.; format: functional; conditions: read-out: IC50_Mean
[8] = biological target: T3, DNA dC->dU-editing enzyme APOBEC-3A (Homo sapiens, UniProt P31941); test: SAR analysis of small molecule inhibitors of APOBEC3A DNA Deaminase via a fluorescence-based single-stranded DNA deaminase assay - Set 2.; format: functional; conditions: read-out: IC50_Mean
[9] = biological target: cAMP-dependent protein kinase catalytic subunit alpha (Homo sapiens, UniProt P17612); format: functional
[10] = biological target: Mitogen-activated protein kinase kinase kinase kinase 4 (Homo sapiens, UniProt O95819); format: functional
[11] = biological target: T4, Interleukin-1 receptor-associated kinase 4 (Homo sapiens, UniProt Q9NWZ3); format: functional
T4 sequence (Q9NWZ3 whole entry): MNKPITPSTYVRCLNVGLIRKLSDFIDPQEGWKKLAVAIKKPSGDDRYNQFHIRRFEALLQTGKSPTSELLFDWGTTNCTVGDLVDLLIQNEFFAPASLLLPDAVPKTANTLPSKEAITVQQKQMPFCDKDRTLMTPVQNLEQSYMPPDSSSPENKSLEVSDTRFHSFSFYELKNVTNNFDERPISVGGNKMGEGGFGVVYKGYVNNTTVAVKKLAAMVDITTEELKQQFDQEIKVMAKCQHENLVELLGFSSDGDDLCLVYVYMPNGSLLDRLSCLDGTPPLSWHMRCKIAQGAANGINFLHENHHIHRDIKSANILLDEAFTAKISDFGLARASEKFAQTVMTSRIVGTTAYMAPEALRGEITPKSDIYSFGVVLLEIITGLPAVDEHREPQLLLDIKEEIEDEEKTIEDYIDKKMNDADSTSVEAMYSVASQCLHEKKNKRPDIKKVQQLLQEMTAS

[12] = biological target: Glycogen synthase kinase-3 beta (Homo sapiens, UniProt P49841); format: functional;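 note: value comes from a broad kinome profiling panel, with GSK3B as the panel member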
[13] = biological target: Cell division cycle 7-related protein kinase (Homo sapiens, UniProt O00311); format: functional;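 note: value obtained from a kinome-wide kinase panel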
[14] = biological target: Serine/threonine-protein kinase pim-1 (Homo sapiens, UniProt P11309); format: functional
[15] = biological target: Dual specificity protein kinase CLK4 (Homo sapiens, UniProt Q9HAZ1); format: functional
[16] = biological target: Homeodomain-interacting protein kinase 2 (Homo sapiens, UniProt Q9H2X6); format: functional;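 note: measured within a kinome-wide kinase profiling panel, HIPK2 being one panel member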
[17] = biological target: T2, DNA dC->dU-editing enzyme APOBEC-3G; test: APOBEC3G deaminase inhibitors, SAR follow-up, biochemical, fluorescence, single-stranded DNA substrate (AID 602136); format: functional; conditions: read-out: IC50_Mean
[18] = biological target: T3, DNA dC->dU-editing enzyme APOBEC-3A; test: SAR analysis of small molecule inhibitors of APOBEC3A DNA Deaminase via a fluorescence-based single-stranded DNA deaminase assay.; format: functional; conditions: read-out: IC50_Mean
[19] = biological target: Tyrosine-protein kinase Fyn (Homo sapiens, UniProt P06241); format: functional
[20] = biological target: Tyrosine-protein kinase Lck (Homo sapiens, UniProt P06239); format: functional;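 note: lck was assayed as one member of a kinase panel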
[21] = biological target: High affinity nerve growth factor receptor (Homo sapiens, UniProt P04629); format: functional;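 note: NTRK1 tested as one member of a kinome-wide profiling panel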
[22] = biological target: Tyrosine-protein kinase Lyn (Homo sapiens, UniProt P07948); format: functional;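 note: lyn as one member of a kinase panel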
[23] = biological target: Macrophage colony-stimulating factor 1 receptor (Homo sapiens, UniProt P07333); format: functional;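 note: value comes from the Navigating the Kinome screening panel, CSF1R member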
[24] = biological target: Vascular endothelial growth factor receptor 2 (Homo sapiens, UniProt P35968); format: functional
[25] = biological target: Tyrosine-protein kinase Blk (Homo sapiens, UniProt P51451); format: functional;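 note: obtained as one member of a kinome-wide kinase assay panel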
[26] = biological target: Tyrosine-protein kinase ABL1 (Homo sapiens, UniProt P00519); format: functional
[27] = biological target: Vascular endothelial growth factor receptor 3 (Homo sapiens, UniProt P35916); format: functional;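 note: value from a kinome-wide profiling panel, with FLT4 as the panel member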
[28] = biological target: Proto-oncogene tyrosine-protein kinase Src (Homo sapiens, UniProt P12931); format: functional;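 note: SRC entry within a kinome-wide kinase profiling panel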
[29] = biological target: T5, Receptor-type tyrosine-protein kinase FLT3 (Homo sapiens, UniProt P36888); format: functional;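 note: FLT3 was tested as one member of a kinome-wide kinase panel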
T5 sequence (P36888 whole entry): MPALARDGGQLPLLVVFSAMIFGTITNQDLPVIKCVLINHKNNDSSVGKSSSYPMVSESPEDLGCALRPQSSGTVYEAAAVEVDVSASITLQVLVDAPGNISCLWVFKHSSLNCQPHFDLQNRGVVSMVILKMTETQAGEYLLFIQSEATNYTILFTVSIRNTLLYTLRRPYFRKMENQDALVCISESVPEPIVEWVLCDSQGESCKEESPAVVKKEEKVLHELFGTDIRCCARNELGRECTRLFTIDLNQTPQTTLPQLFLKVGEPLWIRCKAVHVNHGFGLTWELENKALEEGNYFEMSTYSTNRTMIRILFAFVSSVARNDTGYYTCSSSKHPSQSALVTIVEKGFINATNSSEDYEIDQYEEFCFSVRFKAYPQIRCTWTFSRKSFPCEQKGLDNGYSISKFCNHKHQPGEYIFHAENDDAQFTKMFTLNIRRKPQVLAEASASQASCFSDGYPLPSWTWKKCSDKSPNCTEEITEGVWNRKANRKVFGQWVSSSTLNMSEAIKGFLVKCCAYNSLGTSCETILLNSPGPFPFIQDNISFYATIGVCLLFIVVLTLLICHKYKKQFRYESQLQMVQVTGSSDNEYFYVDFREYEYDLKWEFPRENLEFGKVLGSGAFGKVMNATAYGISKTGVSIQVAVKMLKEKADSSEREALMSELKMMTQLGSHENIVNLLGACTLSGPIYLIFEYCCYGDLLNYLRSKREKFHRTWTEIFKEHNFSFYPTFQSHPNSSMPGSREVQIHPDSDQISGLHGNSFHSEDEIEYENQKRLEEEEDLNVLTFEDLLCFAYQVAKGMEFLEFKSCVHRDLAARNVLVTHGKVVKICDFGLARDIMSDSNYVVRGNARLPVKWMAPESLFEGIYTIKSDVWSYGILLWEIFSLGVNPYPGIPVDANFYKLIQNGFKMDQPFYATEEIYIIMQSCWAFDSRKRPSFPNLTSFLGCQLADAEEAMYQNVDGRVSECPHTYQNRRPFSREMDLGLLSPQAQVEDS

[30] = biological target: Vascular endothelial growth factor receptor 1 (Homo sapiens, UniProt P17948); format: functional;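 note: measured within a kinome-wide profiling panel, FLT1 as the panel member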
[31] = biological target: Mast/stem cell growth factor receptor Kit (Homo sapiens, UniProt P10721); format: functional;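 note: KIT entry within a kinase panel assay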
Insulin-degrading enzyme [32] = biological target: T6, Insulin-degrading enzyme (Homo sapiens, UniProt P14735); test: activators of endogenous IDE in HEK cells, dose response, cell-based, fluorescence polarization (AID 588439); format: functional
T6 sequence (P14735 whole entry): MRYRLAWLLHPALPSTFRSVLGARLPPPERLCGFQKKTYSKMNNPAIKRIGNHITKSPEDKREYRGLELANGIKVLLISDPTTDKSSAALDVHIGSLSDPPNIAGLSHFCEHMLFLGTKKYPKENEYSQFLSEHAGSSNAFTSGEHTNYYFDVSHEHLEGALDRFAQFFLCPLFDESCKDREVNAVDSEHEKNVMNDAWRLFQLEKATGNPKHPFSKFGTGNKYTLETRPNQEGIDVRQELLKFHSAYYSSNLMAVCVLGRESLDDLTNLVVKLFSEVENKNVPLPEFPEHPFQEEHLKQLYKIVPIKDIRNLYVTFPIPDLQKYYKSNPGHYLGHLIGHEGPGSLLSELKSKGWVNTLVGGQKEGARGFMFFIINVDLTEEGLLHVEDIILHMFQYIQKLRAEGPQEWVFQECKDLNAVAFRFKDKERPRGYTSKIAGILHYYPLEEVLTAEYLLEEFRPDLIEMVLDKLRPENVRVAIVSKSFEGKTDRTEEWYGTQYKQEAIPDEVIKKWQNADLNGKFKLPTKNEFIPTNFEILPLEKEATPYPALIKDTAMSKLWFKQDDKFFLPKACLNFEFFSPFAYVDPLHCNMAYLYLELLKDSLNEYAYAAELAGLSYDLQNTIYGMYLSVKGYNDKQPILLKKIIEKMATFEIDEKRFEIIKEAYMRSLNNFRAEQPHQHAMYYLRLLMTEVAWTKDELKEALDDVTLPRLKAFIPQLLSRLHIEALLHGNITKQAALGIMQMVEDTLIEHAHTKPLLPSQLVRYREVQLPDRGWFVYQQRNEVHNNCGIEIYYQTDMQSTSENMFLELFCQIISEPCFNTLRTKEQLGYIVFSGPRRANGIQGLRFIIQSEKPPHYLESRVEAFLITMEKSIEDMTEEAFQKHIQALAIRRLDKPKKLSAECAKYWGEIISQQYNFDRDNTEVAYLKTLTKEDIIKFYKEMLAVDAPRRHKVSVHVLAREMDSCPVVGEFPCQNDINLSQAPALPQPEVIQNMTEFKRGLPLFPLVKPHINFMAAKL

HEK293 [33] = test: optical interference in Abeta FP readout, dose response, artefact control for IDE activator project, biochemical, fluorescence polarization (AID 588442); format: functional, cell-based; conditions: Homo sapiens
[34] = biological target: Eukaryotic translation initiation factor 4E (Mus musculus, UniProt P63073); test: eIF4E–eIF4G protein interaction inhibitors, dose response, biochemical, TR-FRET (AID 855); format: functional;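 note: potency for disrupting eIF4E binding to eIF4GI seen as loss of FRET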
HEK293 [35] = test: HEK cell cytotoxicity by LDH release, dose response, cytotoxicity control for IDE activator project, fluorescence, HEK cells (AID 588440); format: functional, cell-based; conditions: Homo sapiens;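 note: cytotoxicity by LDH release measuring loss of membrane integrity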
Insulin-degrading enzyme [36] = biological target: T6, Insulin-degrading enzyme; test: activators of recombinant IDE enzyme, dose response, counter-screen for IDE activator project, biochemical, fluorescence polarization (AID 588681)
[37] = inhibitors of intracellular T. cruzi replication, confirmation, NIH3T3 host cells, beta-gal luminescence (AID 2044); format: functional, cell-based;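 note: intracellular parasites grown in NIH/3T3 mouse fibroblasts as host cells; luminescent beta-galactosidase reporter signal from transgenic T. cruzi replicating inside host cells; inhibitors lower the luminescence signal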
[38] = cytotoxicity toward NIH3T3 fibroblasts, dose response, counter-screen, cell-based, ATP luminescence, mouse fibroblasts (AID 2010); format: functional;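 note: cells exposed to compound for about 90 hours before reading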

Chain of Mitogen-activated protein kinase kinase kinase kinase 4 (O95819 whole entry): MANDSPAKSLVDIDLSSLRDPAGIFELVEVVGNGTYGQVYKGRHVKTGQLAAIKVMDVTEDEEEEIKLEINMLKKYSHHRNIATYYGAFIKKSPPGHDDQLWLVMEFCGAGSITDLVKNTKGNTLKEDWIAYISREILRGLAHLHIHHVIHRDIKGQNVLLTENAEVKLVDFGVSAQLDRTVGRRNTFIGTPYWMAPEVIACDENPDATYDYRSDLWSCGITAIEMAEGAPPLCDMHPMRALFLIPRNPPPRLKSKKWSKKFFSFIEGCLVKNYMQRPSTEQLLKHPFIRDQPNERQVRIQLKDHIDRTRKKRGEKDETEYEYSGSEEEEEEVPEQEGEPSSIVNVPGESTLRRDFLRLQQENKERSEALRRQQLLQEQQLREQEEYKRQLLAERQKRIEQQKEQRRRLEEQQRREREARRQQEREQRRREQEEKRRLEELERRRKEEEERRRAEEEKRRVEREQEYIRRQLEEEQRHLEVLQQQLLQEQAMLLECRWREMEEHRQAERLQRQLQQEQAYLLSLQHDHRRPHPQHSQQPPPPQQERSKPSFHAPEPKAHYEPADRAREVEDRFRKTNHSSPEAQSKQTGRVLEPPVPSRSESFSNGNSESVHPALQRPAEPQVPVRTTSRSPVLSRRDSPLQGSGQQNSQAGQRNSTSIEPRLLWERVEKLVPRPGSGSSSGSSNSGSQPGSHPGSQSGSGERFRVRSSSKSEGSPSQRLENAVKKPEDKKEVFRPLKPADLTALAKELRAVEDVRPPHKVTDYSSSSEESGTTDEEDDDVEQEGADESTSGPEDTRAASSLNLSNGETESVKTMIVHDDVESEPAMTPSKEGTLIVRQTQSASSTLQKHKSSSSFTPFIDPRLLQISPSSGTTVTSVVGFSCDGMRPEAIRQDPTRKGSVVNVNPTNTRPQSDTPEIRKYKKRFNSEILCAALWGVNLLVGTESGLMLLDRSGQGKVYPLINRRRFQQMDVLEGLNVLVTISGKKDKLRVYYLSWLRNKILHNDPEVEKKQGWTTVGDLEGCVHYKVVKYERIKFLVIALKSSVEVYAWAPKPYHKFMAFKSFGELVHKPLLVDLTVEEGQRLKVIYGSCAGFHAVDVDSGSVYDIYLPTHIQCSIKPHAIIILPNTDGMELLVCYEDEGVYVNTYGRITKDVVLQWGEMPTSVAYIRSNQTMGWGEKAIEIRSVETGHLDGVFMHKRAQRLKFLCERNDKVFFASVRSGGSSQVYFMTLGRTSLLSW
Chain of Vascular endothelial growth factor receptor 2 (P35968 whole entry): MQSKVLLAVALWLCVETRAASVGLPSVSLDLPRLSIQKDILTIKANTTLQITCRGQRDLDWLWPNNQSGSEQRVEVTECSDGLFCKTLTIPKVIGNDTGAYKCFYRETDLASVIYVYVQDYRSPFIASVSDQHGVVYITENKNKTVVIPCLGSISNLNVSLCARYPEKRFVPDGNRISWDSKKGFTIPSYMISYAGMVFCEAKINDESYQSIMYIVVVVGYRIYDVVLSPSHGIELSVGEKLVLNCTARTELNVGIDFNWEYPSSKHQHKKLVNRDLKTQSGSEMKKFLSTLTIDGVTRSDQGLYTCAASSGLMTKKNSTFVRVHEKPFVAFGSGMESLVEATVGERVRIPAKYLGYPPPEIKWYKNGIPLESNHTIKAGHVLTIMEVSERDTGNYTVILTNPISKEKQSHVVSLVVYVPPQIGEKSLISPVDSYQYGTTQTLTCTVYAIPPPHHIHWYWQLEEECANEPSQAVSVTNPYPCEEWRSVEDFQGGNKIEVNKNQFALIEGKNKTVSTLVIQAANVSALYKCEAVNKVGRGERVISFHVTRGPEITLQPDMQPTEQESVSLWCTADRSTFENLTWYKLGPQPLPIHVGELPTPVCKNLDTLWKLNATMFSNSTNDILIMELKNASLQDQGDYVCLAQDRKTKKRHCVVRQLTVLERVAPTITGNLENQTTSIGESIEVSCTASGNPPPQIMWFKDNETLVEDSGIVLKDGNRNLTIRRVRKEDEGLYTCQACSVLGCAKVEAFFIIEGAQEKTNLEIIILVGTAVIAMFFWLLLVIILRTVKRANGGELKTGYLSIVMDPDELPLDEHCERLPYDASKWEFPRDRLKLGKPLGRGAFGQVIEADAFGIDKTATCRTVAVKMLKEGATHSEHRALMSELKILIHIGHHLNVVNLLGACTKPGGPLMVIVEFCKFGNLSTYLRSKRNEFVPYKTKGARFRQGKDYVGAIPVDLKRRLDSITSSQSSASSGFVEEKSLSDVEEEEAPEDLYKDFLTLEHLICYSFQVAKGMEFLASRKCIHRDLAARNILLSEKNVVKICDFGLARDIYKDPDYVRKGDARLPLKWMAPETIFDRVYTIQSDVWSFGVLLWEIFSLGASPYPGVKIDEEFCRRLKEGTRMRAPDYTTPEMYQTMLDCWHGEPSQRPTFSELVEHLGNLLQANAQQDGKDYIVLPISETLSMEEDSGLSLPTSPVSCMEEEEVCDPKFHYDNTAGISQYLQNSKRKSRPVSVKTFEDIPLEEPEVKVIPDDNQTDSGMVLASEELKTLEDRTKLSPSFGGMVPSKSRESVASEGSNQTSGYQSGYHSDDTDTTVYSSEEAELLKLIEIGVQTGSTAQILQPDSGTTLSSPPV
Chain of Mast/stem cell growth factor receptor Kit (P10721 whole entry): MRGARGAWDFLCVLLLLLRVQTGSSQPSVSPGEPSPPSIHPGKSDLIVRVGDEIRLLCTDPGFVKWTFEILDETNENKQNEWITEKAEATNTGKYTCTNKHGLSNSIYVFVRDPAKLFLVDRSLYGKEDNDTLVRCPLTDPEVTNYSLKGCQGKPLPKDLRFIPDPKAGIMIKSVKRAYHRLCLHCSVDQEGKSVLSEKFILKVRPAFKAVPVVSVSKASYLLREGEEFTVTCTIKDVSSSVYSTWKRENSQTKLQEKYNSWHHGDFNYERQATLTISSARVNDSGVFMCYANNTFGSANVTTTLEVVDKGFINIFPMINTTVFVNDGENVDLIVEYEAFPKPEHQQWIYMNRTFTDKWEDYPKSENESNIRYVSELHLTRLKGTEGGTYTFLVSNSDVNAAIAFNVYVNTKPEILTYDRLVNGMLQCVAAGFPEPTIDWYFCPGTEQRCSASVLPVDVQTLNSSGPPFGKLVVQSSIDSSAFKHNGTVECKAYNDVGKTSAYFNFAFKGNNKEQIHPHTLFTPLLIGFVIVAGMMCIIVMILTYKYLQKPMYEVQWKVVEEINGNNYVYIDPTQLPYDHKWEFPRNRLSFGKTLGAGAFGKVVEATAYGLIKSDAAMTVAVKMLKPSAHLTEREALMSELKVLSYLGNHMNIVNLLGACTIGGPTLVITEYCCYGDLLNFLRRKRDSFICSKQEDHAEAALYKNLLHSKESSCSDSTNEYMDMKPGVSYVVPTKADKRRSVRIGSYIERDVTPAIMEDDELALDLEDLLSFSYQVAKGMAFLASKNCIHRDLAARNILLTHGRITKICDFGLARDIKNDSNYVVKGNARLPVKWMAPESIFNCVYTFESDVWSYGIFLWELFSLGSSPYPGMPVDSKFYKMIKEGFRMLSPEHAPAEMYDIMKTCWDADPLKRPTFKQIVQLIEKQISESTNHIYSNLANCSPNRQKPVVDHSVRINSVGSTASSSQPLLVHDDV
Chain of Cell division cycle 7-related protein kinase (O00311 whole entry): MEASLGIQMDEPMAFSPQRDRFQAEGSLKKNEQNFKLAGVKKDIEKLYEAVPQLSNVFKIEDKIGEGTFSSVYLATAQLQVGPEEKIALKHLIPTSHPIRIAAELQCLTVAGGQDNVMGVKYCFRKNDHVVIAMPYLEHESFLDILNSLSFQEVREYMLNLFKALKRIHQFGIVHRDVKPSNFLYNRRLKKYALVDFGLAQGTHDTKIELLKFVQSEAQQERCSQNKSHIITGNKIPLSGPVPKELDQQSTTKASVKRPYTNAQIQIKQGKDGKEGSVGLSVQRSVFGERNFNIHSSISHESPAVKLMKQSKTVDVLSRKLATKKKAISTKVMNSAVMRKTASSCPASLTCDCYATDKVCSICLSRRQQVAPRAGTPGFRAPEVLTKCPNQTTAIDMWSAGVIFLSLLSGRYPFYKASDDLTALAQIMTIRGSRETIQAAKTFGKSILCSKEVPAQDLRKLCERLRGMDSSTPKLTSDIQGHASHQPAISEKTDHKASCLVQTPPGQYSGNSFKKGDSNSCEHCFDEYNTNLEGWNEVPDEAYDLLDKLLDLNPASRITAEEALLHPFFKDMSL
Chain of Tyrosine-protein kinase Fyn (P06241 whole entry): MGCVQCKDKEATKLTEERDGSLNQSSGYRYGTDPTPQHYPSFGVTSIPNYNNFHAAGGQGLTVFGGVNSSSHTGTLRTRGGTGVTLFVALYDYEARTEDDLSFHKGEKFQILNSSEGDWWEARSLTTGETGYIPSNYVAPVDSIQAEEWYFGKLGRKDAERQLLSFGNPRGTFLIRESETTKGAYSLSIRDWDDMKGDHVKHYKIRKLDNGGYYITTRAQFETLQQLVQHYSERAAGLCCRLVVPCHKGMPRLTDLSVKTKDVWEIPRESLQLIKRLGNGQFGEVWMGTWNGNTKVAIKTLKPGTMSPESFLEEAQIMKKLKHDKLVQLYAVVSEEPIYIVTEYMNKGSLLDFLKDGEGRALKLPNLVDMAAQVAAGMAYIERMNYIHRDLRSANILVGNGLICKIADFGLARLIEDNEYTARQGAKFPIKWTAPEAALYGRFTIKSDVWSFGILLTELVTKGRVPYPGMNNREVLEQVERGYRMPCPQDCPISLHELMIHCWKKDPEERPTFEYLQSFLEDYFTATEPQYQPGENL
T2 sequence (Q9HC16 whole entry): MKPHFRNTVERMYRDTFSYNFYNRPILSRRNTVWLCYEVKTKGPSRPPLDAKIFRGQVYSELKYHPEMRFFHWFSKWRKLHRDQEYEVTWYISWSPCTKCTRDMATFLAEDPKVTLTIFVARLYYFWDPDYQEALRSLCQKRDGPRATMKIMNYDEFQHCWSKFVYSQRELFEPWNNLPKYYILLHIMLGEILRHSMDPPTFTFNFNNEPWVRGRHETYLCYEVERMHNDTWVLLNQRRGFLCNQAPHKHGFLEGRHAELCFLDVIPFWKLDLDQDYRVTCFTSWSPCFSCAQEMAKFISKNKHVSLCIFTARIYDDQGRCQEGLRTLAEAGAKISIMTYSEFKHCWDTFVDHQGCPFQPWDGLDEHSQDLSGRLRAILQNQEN

CCc1ccc(/C=C2/SC(=S)N(CCC(=O)Nc3ccc(C(=O)O)cc3)C2=O)cc1
IC50 [1]: > 100000 nM (inactive)
IC50 (SUMO-activating enzyme [2]): 14100 nM (active)
IC50 (SUMO-activating enzyme [3]): 4150 nM (active)
IC50 [4]: > 80000 nM (inactive)
IC50 [5]: 18100 nM (active)
IC50 (Prothrombin): 51700 nM (active)

NNC(=O)c1cc(-c2ccc(O)cc2)nc2ccc(Br)cc12
AC50 [6]: 19500 nM (active)

Cc1c(-c2ccnc3cc(C(=O)O)nn23)cnn1C
IC50 [7]: > 99000 nM (inactive)
IC50 [8]: 88900 nM (inactive)

O=C(NCc1ccccc1)c1c[nH]n2c(=O)cc(-c3ccncc3)nc12
Ki [9]: 3980 nM (active)
Ki [10]: 100 nM (active)
Ki [11]: 6310 nM (active)
Ki [12]: 2.51 nM (active)
Ki [13]: 5.01 nM (active)
Ki [14]: 25.1 nM (active)
Ki [15]: 5.01 nM (active)
Ki [16]: 20 nM (active)

CCCc1nnc2c3c4c(sc3ncn12)CCCC4
IC50 [17]: > 99000 nM (inactive)
IC50 [18]: > 99000 nM (inactive)

OCCNc1cc(-c2c[nH]c3ncccc23)cc(Cl)n1
Ki [9]: 158 nM (active)
Ki [10]: 3.98 nM (active)
Ki [11]: 1260 nM (active)
Ki [12]: 200 nM (active)
Ki [13]: 2.51 nM (active)
Ki [14]: 1580 nM (active)
Ki [16]: 79.4 nM (active)

Nc1n[nH]c2cccc(-c3ccc(NC(=O)Nc4cccc(Cl)c4)c(F)c3)c12
Ki [19]: 398 nM (active)
pKi [19]: 6.4
Ki [20]: 100 nM (active)
pKi [20]: 7
Ki [21]: 1260 nM (active)
pKi [21]: 5.9
Ki [22]: 158 nM (active)
pKi [22]: 6.8
Ki [23]: 2 nM (active)
pKi [23]: 8.7
Ki [24]: 3.16 nM (active)
pKi [24]: 8.5
Ki [25]: 200 nM (active)
pKi [25]: 6.7
Ki [26]: 501 nM (active)
pKi [26]: 6.3
Ki [27]: 3.16 nM (active)
pKi [27]: 8.5
Ki [28]: 501 nM (active)
Ki [29]: 1 nM (active)
pKi [29]: 9
Ki [30]: 0.631 nM (active)
pKi [30]: 9.2
Ki [31]: 0.794 nM (active)
pKi [31]: 9.1

CCN1CCN(CCNC(=O)c2ccc(/C=C3/Sc4ccccc4N(Cc4cccc(Cl)c4)C3=O)cc2)CC1
EC50 (Insulin-degrading enzyme [32]): > 54700 nM (inactive)
EC50 (HEK293 [33]): > 55900 nM (inactive)
IC50 [34]: 50000 nM (inactive)
IC50 (HEK293 [35]): 19500 nM (inactive)
EC50 (Insulin-degrading enzyme [36]): 53400 nM (inactive)
EC50 [37]: 1410 nM (active)
EC50 [38]: 8470 nM (active)
